Data from article PMC4303209, “A novel phosphatidylinositol 3-kinase (PI3K) inhibitor directs a potent FOXO-dependent, p53-independent cell cycle arrest phenotype characterized by the differential induction of a subset of FOXO-regulated genes” (Breast Cancer Research : BCR, 2014).

How the values were obtained:
mutated BRAF = test: Protein kinase panel screen (ProQinase), mutated BRAF; format: biochemical; settings: 10 μM
Procedure: (§1) The protein kinase assays depicted in Figure S1 in Additional file 1 and Table S2 in Additional file 2 were performed at ProQinase, GmbH [18].
(§2) Our first objective was to analyse the biological activity of ETP-45658 including the physical and chemical properties of this compound compared to the reference pan-class I PI3K and mTOR inhibitor PI-103 [9]. We characterised the structure of each compound (Figure S1A in Additional file 1) and conducted the in silico analysis of each compound to measure their physiochemical properties (Figure S1B in Additional file 1). We determined the molecular polar surface area (PSA) of each compound, the partition coefficient, the distribution coefficient, compound solubility and the number of hydrogen donors and acceptors. […] Each indicated protein kinase activity was assayed following 10 μM treatment with either compound.
(§3) Supplementary file 13058_2014_482_MOESM1_ESM.jpeg: Additional file 1: Figure S1.: Comparative analysis of ETP-45658 and PI-103. (A) Chemical structure of ETP-45658 and PI-103. (B) Physiochemical properties of ETP-45658 and PI-103, including molecular polar surface area (PSA), partition coefficient (LogP), ACD clogD and solubility at two different pH values including Lipinsky’s Rule of Five (RoF) analysis. […] The kinase activity of PI3K was measured by using the commercial PI3-kinase HTRF™ assay mTOR activity by LanthaScreen™. […]

[1] = molecular target: panel of 24 representative kinases; test: Protein kinase panel screen (ProQinase); format: biochemical, human; settings: 10 μM
Procedure: as §1, §2, §3

[2] = system: known toxicity pathways and canonical stress pathways; test: Ingenuity Pathway Tox Analysis of genome-wide array data; format: cell-based, human; settings: vs DMSO; MCF-7 array data
Excerpt: While our results highlight that the primary cellular response is an anti-proliferative response (as opposed to an apoptotic response), for the development of ETP-45658 as a potential therapeutic, we questioned if ETP-45658 exposure was associated with any degree of toxicity, one of the most fundamental questions for any proposed therapeutic. We conducted a genome-wide analysis utilising an Ingenuity Pathway Analysis algorithm to address if any known toxicity pathway(s) were activated or induced after treatment with ETP-45658 (or by the reference compound PI-103). This included an extensive evaluation of the cardiac necrosis stress cascade, genes implicated in kidney failure, liver necrosis and liver hematomegaly. Furthermore, we also questioned if, on a genome-wide scale, any know canonical stress pathways were activated by ETP-45658 (or PI-103) treatment. This included the p53 pathway, PTEN aldosterone, ErbB2-ErbB3 and the ERK-MAPK signalling cascades.
Figure 2 Focused toxicity and safety assessment of ETP-45658.

[3] = system: serine 253-phosphorylated FOXO3a; test: Immunoblot of FOXO3a phosphorylation in MCF-7 or U2OS cells; format: cell-based, human; settings: breast or osteosarcoma cancer cells; six hours post treatment

Row | SMILES | average percent inhibition (mutated BRAF) | kinases significantly inhibited in panel of 24 kinases [1] | induction of known toxicity pathways (Ingenuity Pathway Tox Analysis) [2] | serine 253-phosphorylated FOXO3a [3]
1 | Oc1cccc(-c2nc(N3CCOCC3)c3oc4ncccc4c3n2)c1 [PI-103] | 57.7% | only mutated BRAF was significantly inhibited | Neither ETP-45658 (nor PI-103) treatment significantly induced any known toxicity pathways | almost complete absence
2 | Cn1ncc2c(N3CCOCC3)nc(-c3cccc(O)c3)nc21 [ETP-45658] | 38% | only mutated BRAF was significantly inhibited | Neither ETP-45658 (nor PI-103) treatment significantly induced any known toxicity pathways | almost complete absence
